Our source for the IC50 values is patent publication US20240368127A1, “HSD17B13 INHIBITORS AND USES THEREOF” (FL2022-001, Inc., priority 2021, published 2024).

This assay deals with T1, Recombinant human HSD17B13 enzyme (Homo sapiens, UniProt Q7Z5P4).
T1 sequence (Q7Z5P4 20-300): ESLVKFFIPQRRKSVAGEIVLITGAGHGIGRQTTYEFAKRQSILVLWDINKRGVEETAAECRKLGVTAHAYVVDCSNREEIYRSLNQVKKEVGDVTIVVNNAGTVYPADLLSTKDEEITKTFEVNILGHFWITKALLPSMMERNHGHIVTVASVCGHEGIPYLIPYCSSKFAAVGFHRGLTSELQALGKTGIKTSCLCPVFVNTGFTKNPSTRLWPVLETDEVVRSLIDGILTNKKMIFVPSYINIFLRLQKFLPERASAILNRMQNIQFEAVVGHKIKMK
In words: HSD17b13 NAD(P)H-Glo biochemical assay. The note with it: 50 μM estradiol, 1 mM NAD+, 37° C. for 3 hours; read-out: HSD17β13 IC50. In a few lines: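 Enzyme preincubated with inhibitor 20 min at RT in 20 mM Tris pH7.4, 0.002% Tween-20, 0.02% BSA, then reacted 3 h at 37° C with 50 μM estradiol and 1 mM NAD+ (final). NADH formation read by NAD(P)H-Glo luminescence after 1 h at RT.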
In general, IC50 refers to the concentration that inhibits the measured activity by half. As for `CC(=O)c1nn(-c2cc(C(F)(F)F)c(F)c(O)c2F)c2ccc(N3CCN(S(C)(=O)=O)C[C@H]3Cc3ccccc3)cc12` [Compound 2.08], the IC50 was not above 100 nM.

As to `CC(=O)N1CCN(c2ncc3c(-c4cc(C(F)(F)F)c(F)c(O)c4F)nn(C)c3n2)C[C@@H]1Cc1ccccc1` [Compound 6.04, (S)-1-(2-Benzyl-4-(3-(2,4-difluoro-3-hydroxy-5-(trifluoromethyl)phenyl)-1-methyl-1H-pyrazolo[3,4-d]pyrimidin-6-yl)piperazin-1-yl)ethan-1-one], the IC50 was not above 100 nM.

Regarding `CS(=O)(=O)N1CCN(c2ncc3c(cnn3-c3cc(C(F)(F)F)c(F)c(O)c3F)n2)[C@H](Cc2ccccc2)C1` [Compound 2.09, (R)-3-(5-(2-Benzyl-4-(methylsulfonyl)piperazin-1-yl)-1H-pyrazolo[4,3-d]pyrimidin-1-yl)-2,6-difluoro-5-(trifluoromethyl)phenol], the 50% inhibitory concentration (IC50) was not above 100 nM.

For `Oc1c(F)cc2nnn(-c3ccc(N4CC[C@H](Cc5ccccc5)C4)cc3)c2c1F` [Compound 1.07, (S)-1-(4-(3-Benzylpyrrolidin-1-yl)phenyl)-5,7-difluoro-1H-benzo[d][1,2,3]triazol-6-ol], the IC50 is not above 100 nM.

As to `Cn1nc(-c2cc(C(F)(F)F)c(F)c(O)c2F)c2cnc(N3CCOC[C@H]3Cc3ccc(F)cc3)nc21` [Compound 5.23, (R)-2,6-Difluoro-3-(6-(3-(4-fluorobenzyl)morpholino)-1-methyl-1H-pyrazolo[3,4-d]pyrimidin-3-yl)-5-(trifluoromethyl)phenol], the IC50 is not above 100 nM.

As for `Cn1nc(-c2cc(C(F)(F)F)c(F)c(O)c2F)c2cnc(N3CCN(C(=O)C(F)(F)F)CC3CC3CC3)nc21` (stereo not drawn) [Compound 11.14, 1-(3-(Cyclopropylmethyl)-4-(3-(2,4-difluoro-3-hydroxy-5-(trifluoromethyl)phenyl)-1-methyl-1H-pyrazolo[3,4-d]pyrimidin-6-yl)piperazin-1-yl)-2,2,2-trifluoroethan-1-one], the IC50 is not above 100 nM.

With `Cc1c2cc(N3CCN(S(C)(=O)=O)C[C@H]3Cc3ccccc3)ccc2nn1-c1cc(O)cc(C(F)(F)F)n1` [Compound 2.30, (R)-2-(5-(2-Benzyl-4-(methylsulfonyl)piperazin-1-yl)-3-methyl-2H-indazol-2-yl)-6-(trifluoromethyl)pyridin-4-ol], the IC50 was in the range of 1000 to 30000 nM.

For the compound `Cc1nn(-c2cc(C(F)(F)F)c(F)c(O)c2F)c2cnc(N3CCN(S(C)(=O)=O)C[C@H]3Cc3ccccc3)nc12` [Compound 2, (R)-3-(5-(2-Benzyl-4-(methylsulfonyl)piperazin-1-yl)-3-methyl-1H-pyrazolo[4,3-d]pyrimidin-1-yl)-2,6-difluoro-5-(trifluoromethyl)phenol], the IC50 is not above 100 nM.

On to `CC#Cc1cc(-c2nn(C)c3nc(N4CCN(S(C)(=O)=O)C[C@H]4Cc4ccccc4)ncc23)c(F)c(O)c1F` [Compound 11.18, (R)-3-(6-(2-Benzyl-4-(methylsulfonyl)piperazin-1-yl)-1-methyl-1H-pyrazolo[3,4-d]pyrimidin-3-yl)-2,6-difluoro-5-(prop-1-yn-1-yl)phenol], for which the IC50 is not above 100 nM.

`Oc1c(F)cc2nnn(-c3ccc(N4CCOC[C@H]4Cc4ccccc4)cc3)c2c1F` [Compound 1.05, (R)-1-(4-(3-Benzylmorpholino)phenyl)-5,7-difluoro-1H-benzo[d][1,2,3]triazol-6-ol]: the IC50 lay within 100 to 1000 nM.

Regarding `CCC(=O)N1CCN(c2ncc3c(-c4cc(C(F)(F)F)c(F)c(O)c4F)nn(C)c3n2)[C@H](Cc2ccccc2)C1` [Compound 6.09, (R)-1-(3-Benzyl-4-(3-(2,4-difluoro-3-hydroxy-5-(trifluoromethyl)phenyl)-1-methyl-1H-pyrazolo[3,4-d]pyrimidin-6-yl)piperazin-1-yl)propan-1-one], the IC50 is not above 100 nM.

Turning to `Cc1cccc(C[C@H]2CN(c3ncc4c(-c5cc(C(F)(F)F)c(F)c(O)c5F)nn(C)c4n3)CCO2)c1` [Compound 12.07, (S)-2,6-Difluoro-3-(1-methyl-6-(2-(3-methylbenzyl)morpholin)-1H-pyrazolo[3,4-d]pyrimidin-3-yl)-5-(trifluoromethyl)phenol], the IC50 is not above 100 nM.

For `CCn1nc(-c2cc(C(F)(F)F)c(F)c(O)c2F)c2cnc(N3CCN(S(C)(=O)=O)C[C@H]3Cc3ccccc3)nc21` [Compound 11.22, (R)-3-(6-(2-Benzyl-4-(methylsulfonyl)piperazin-1-yl)-1-ethyl-1H-pyrazolo[3,4-d]pyrimidin-3-yl)-2,6-difluoro-5-(trifluoromethyl)phenol], the IC50 was not above 100 nM.

Consider `Cn1nc(-c2c(C#N)cc(F)c(O)c2F)c2cnc(N3CCN(S(C)(=O)=O)C[C@H]3Cc3ccccc3)nc21` [Compound 11.16, 2-(6-((R)-2-Benzyl-4-(methylsulfonyl)piperazin-1-yl)-1-methyl-1H-pyrazolo[3,4-d]pyrimidin-3-yl)-3,5-difluoro-4-hydroxybenzonitrile], for which the IC50 was not above 100 nM.

With `Cc1nn(-c2cc(C(F)(F)F)c(F)c(O)c2F)c2cc(Cl)c(N3CCN(S(C)(=O)=O)C[C@H]3Cc3ccccc3)nc12` [Compound 2.34, (R)-3-(5-(2-Benzyl-4-(methylsulfonyl)piperazin-1-yl)-6-chloro-3-methyl-1H-pyrazolo[4,3-b]pyridin-1-yl)-2,6-difluoro-5-(trifluoromethyl)phenol], the IC50 was not above 100 nM.

`Cn1nc(-c2cc(C(F)(F)F)c(F)c(O)c2F)c2cnc(N3CCC(O)(CN4CCOCC4)CC3)nc21` [Compound 5.05, 1-(3-(2,4-Difluoro-3-hydroxy-5-(trifluoromethyl)phenyl)-1-methyl-1H-pyrazolo[3,4-d]pyrimidin-6-yl)-4-(morpholinomethyl)piperidin-4-ol]: the IC50 was 100 to 1000 nM.

Consider `Cn1nc(-c2cc(C(F)(F)F)c(F)c(O)c2F)c2cnc(N3CCN(S(C)(=O)=O)C(CC4CCC4)C3)nc21` (stereo not drawn) [Compound 5.37, 3-(6-(3-(Cyclobutylmethyl)-4-(methylsulfonyl)piperazin-1-yl)-1-methyl-1H-pyrazolo[3,4-d]pyrimidin-3-yl)-2,6-difluoro-5-(trifluoromethyl)phenol], for which the IC50 is not above 100 nM.

Consider `Cc1nn(-c2cc(Cl)c(F)c(O)c2F)c2cnc(N3CCN(S(C)(=O)=O)C[C@H]3Cc3ccccc3)nc12` [Compound 2.35, (R)-3-(5-(2-Benzyl-4-(methylsulfonyl)piperazin-1-yl)-3-methyl-1H-pyrazolo[4,3-c]pyrimidin-1-yl)-5-chloro-2,6-difluorophenol], for which the concentration for half-maximal inhibition (IC50) was not above 100 nM.

Take `Cc1nn(-c2ncc(Cl)c(O)c2F)c2cnc(N3CCN(S(C)(=O)=O)C[C@H]3Cc3ccccc3)cc12` [Compound 2.17, (R)-2-(5-(2-Benzyl-4-(methylsulfonyl)piperazin-1-yl)-3-methyl-1H-pyrazolo[3,4-c]pyridin-1-yl)-5-chloro-3-fluoropyridin-4-ol]: the IC50 fell in the range of 100 to 1000 nM.

For `Cc1nn(-c2cc(C(F)(F)F)c(F)c(O)c2F)c2ccc(N3CCN(S(C)(=O)=O)C[C@H]3Cc3ccccc3)cc12` [Compound 2.13, (R)-3-(5-(2-Benzyl-4-(methylsulfonyl)piperazin-1-yl)-3-methyl-1H-indazol-1-yl)-2,6-difluoro-5-(trifluoromethyl)phenol], the half-maximal inhibitory concentration (IC50) is not above 100 nM.

Take `Cn1nc(-c2cc(C(F)(F)F)c(F)c(O)c2F)c2cnc(N3CCN(S(C)(=O)=O)C(CC4CC4)C3)nc21` (stereo not drawn) [Compound 5.33, 3-(6-(3-(Cyclopropylmethyl)-4-(methylsulfonyl)piperazin-1-yl)-1-methyl-1H-pyrazolo[3,4-d]pyrimidin-3-yl)-2,6-difluoro-5-(trifluoromethyl)phenol]: the IC50 was not above 100 nM.

As for `Cc1ccc(C[C@@H]2COCCN2c2ncc3c(-c4cc(C(F)(F)F)c(F)c(O)c4F)nn(C)c3n2)cc1` [Compound 5.21, (R)-2,6-Difluoro-3-(1-methyl-6-(3-(4-methylbenzyl)morpholino)-1H-pyrazolo[3,4-d]pyrimidin-3-yl)-5-(trifluoromethyl)phenol], the IC50 is not above 100 nM.

Take `CS(=O)(=O)N1CCN(c2ccc(-n3nnc4cc(F)c(O)c(F)c43)cc2)C[C@@H]1Cc1ccccc1` [Compound 1.02, (S)-1-(4-(3-Benzyl-4-(methylsulfonyl)piperazin-1-yl)phenyl)-5,7-difluoro-1H-benzo[d][1,2,3]triazol-6-ol]: the IC50 was not above 100 nM.

Take `Cn1nc(-c2cccc(O)c2)c2cnc(N3CCN(S(C)(=O)=O)C[C@H]3Cc3ccccc3)nc21` [Compound 11.11, (R)-3-(6-(2-Benzyl-4-(methylsulfonyl)piperazin-1-yl)-1-methyl-1H-pyrazolo[3,4-d]pyrimidin-3-yl)phenol]: the IC50 was 1000 to 30000 nM.

Turning to `Cc1ccc([C@@H](O)[C@H]2CN(c3ncc4c(-c5cc(C(F)(F)F)c(F)c(O)c5F)nn(C)c4n3)CCO2)cc1` [Compound 13, 2,6-Difluoro-3-(6-((R)-2-((R)-hydroxy(p-tolyl)methyl)morpholino)-1-methyl-1H-pyrazolo[3,4-d]pyrimidin-3-yl)-5-(trifluoromethyl)phenol], the 50% inhibitory concentration (IC50) was not above 100 nM.

For `Cn1nc(-c2cc(C(F)(F)F)c(F)c(O)c2F)c2cnc(N3CCOC[C@H]3Cc3ccccc3F)nc21` [Compound 5.25, (R)-2,6-Difluoro-3-(6-(3-(2-fluorobenzyl)morpholino)-1-methyl-1H-pyrazolo[3,4-d]pyrimidin-3-yl)-5-(trifluoromethyl)phenol], the half-maximal inhibitory concentration (IC50) is not above 100 nM.

In the case of `CS(=O)(=O)N1CCN(c2ccc(-n3nnc4cc(F)c(O)c(F)c43)cc2)[C@H](Cc2ccccc2)C1` [Compound 1, (R)-1-(4-(2-Benzyl-4-(methylsulfonyl)piperazin-1-yl)phenyl)-5,7-difluoro-1H-benzo[d][1,2,3]triazol-6-ol], the IC50 is not above 100 nM.
